# Measured values reported in patent US8663645B2, “Use of native peptides and their optimized derivatives for vaccination” (Vaxon Biotech, priority 2005, dated 2014).
# Where “and” joins values, the source holds several entries; their conditions need not be identical. Equal entries are not always repeated. No end group written: not given here.
# Key:
# EL4/HHD tumor cells = test: In vivo tumor protection assay; design: species or system HHD mice; conditions: for Survival post-challenge / Survival post-challenge (days): individual mice
# Procedure: HHD mice were vaccinated with 100 μg of peptide emulsified in IFA in the presence of 150 μg of the 1 Ab restricted HBVcore128 epitope once and then again two weeks later. One week after the second vaccination they were challenged subcutaneously with 2×10^4 EL4/HHD cells. Survival was recorded every two days.
# HHD mice were vaccinated with the optimized cryptic TERT572Y and TERT988Y peptides and fifteen days later boosted with either the same optimized or the corresponding native cryptic peptide. Ten days after the boost, mice were challenged with EL4/HHD tumor cells and monitored for tumor growth and survival. Mice primed and boosted with the gp100154 peptide were used as negative controls (Table 8). 100% of control mice died by day 43 post-challenge.
# [1] = test system: RMAS/HHD cells pulsed with TERT988; test: Avidity of CTL lines for native TERT988 (51Cr release); type: cell-based, HHD mice; conditions: TERT988Y primed spleen cells
# Procedure: (§1) HHD mice were injected subcutaneously with 100 μg of nonamer peptides emulsified in incomplete Freund's adjuvant (IFA) in the presence of 150 μg of the I-Ab restricted HBVcore128 T-helper epitope. Spleen cells (5×10^7 cells in 10 ml) from immunized HHD mice were stimulated in vitro with peptide (10 μM) in RPMI1640+10% FCS for five days. The CTL lines were established by weekly re-stimulation in vitro with irradiated spleen cells in the presence of peptide and 50 U/ml IL-2 (Proleukin, Chiron Corp., Emeryville, Calif.).
# (§2) Murine RMAS/HHD cells were used as targets for cytotoxicity as described (Tourdot, Scardino et al. 2000). Briefly, 2.5×10^3 51Cr-labeled targets were pulsed with increasing doses (0.00001-10 μM) of peptides at 37° C. for 60 min. Effector cells in 100 μl were then added and incubated at 37° C. for 4 hours. After incubation, 100 μl of supernatant were collected and radioactivity was measured in a gamma counter. The specific lysis was determined as: Lysis=(Experimental Release−Spontaneous Release)/(Maximal Release−Spontaneous Release). CTL avidity is defined as the peptide concentration that gives half the maximal lysis. […] In Vivo Tumor Protection Assay
# (§3) HHD mice were immunized with the optimized cryptic TERT988Y peptide. Eleven days later, spleen cells from vaccinated mice were pooled and in vitro serially stimulated with 10 μM of either TERT988Y or the native cryptic TERT988 peptides in the presence of 50 IU/ml of IL2. Stimulations were repeated every week. After the first, third and sixth in vitro stimulation, CTL lines were tested for their avidity for the native TERT988 peptide in a classical ^51Cr release cytotoxicity assay (Table 5).
# [2] = test system: RMAS/HHD cells pulsed with MAGE-A248D9; test: Avidity of CTL lines for native MAGE-A248D9 (51Cr release); type: cell-based, HHD mice; conditions: MAGE-A248V9 primed spleen cells
# Procedure: as §1, §2
# as §3, with “optimized MAGE-A248V9 peptide, corresponding to the” for “optimized”, “MAGE-A248D9 (both described in WO03083124).” for “TERT988Y peptide.”, “100” for “10”, “MAGE-A248V9” for “TERT988Y”, “MAGE-A248D9” for “TERT988”, “6).” for “5).”
# [3] = test system: patients treated with TERT540; conditions: cited from earlier work
# [4] = Storage stability of vaccine peptides; type: physicochemical; conditions: more than two years of storage at −80° C.
# Procedure: The vaccine consisted of optimized TERT572Y (YLFFYRKSV) (SEQ ID NO:2) and native TERT572 (RLFFYRKSV) (SEQ ID NO:1) peptides emulsified in Montanide ISA51 (Seppic Inc, France). The vaccine peptides were synthesized at the Faculty of Pharmacy, University of Patras (Greece) by means of solid-phase Fmoc/Bu chemistry. Quality assurance studies included confirmation of identity, sterility and purity (>95% for both peptides). […] Each peptide was prepared as a lyophilized powder for reconstitution and dilution in sterile water.
# [5] = test system: RMAS/HHD cells pulsed with TERT572; test: Avidity for TERT572 of CTL after in vivo prime and boost; conditions: individual HHD mice, 1st vaccination TERT572Y, 2nd vaccination the labelled peptide
# Procedure: as §1, §2
# HHD mice were vaccinated with the optimized cryptic TERT572Y peptide described above. Fifteen days later, they were boosted with either the same optimized or the native cryptic TERT572 peptide. […]
# [6] = Phase I clinical study: toxicity (NCI Common Toxicity Criteria); type: in vivo, human
# Procedure: Patients received a total of six subcutaneous vaccinations administered every 3 weeks. Peptides in 0.5 ml aqueous solution were emulsified with 0.5 ml Montanide ISA51 immediately before being injected. The optimized TERT572Y peptide was used for the first 2 vaccinations and the native TERT572 peptide for the remaining 4 vaccinations. Five dose levels of the peptides were studied; dose levels included 2, 3, 4, 5 and 6 mg of both peptides. Three patients were entered at each dose level. An additional 3 patients were planned to be enrolled at the dose level where a dose-limiting event was observed. Each patient received the same peptide dose for all six vaccinations. No other treatment with possible antitumor activity, i.e., chemotherapy, radiotherapy, hormonal therapy or administration of corticosteroids, was allowed during the course of vaccination.
# Before entering the study, all patients were assessed by complete medical history, physical examination, and complete blood cell count with differential, serum chemistry and baseline measurements of relevant tumor markers. Moreover, measurable disease was determined by standard imaging procedures (chest x-ray, ultrasound, computed tomography scans of thorax and abdomen, magnetic resonance imaging (MRI) if indicated, and whole body bone scans). Toxicity during the vaccination protocol was evaluated by repeating the complete blood cell count weekly and by performing medical history, physical examination and serum chemistry every three weeks before each subsequent injection during the vaccination period and every month thereafter during the follow up. Toxicity was assessed and scored using the National Cancer Institute (NCI) Common Toxicity Criteria (Ajani, Welch et al. 1990). Dose-limiting toxicity (DLT) was assessed during the entire vaccination protocol and was defined as the occurrence of any of the following: grade 4 hematologic toxicity; grade 3-4 neutropenia with fever>38.2° C.; grade 3-4 non-hematologic toxicity; and any treatment delay because of toxicity. Dose escalation was discontinued and the DLT dose level was reached if at least 50% of the patients treated at that level develop a DLT. The MTD dose level was defined as the first level below the DLT dose level.
# [7] = 1 in vitro stimulation with the labelled peptide (10 μM)
# [8] = 3 in vitro stimulations with the labelled peptide
# [9] = 6 in vitro stimulations with the labelled peptide
# [10] = prime TERT988Y, boost the labelled peptide
# [11] = 1 in vitro stimulation with the labelled peptide
# [12] = prime TERT572Y, boost the labelled peptide
substance,measurement,setting,value
"KTWGQYWQV [Gp100154, reference compound]",Survival post-challenge,"EL4/HHD tumor cells; prime Gp100154, boost the labelled peptide (negative control)",39 days (2×) and 43 days and 41 days (2×) and 40 days
same,control mice died by day 43 post-challenge,EL4/HHD tumor cells; primed and boosted with gp100154,100%
DLQVNSLQTV (TERT-988) [TERT988],CTL line avidity,[1]; [7],170 nM
same,CTL line avidity,[1]; [8],70 nM
same,CTL line avidity,[1]; [9],3 nM
same,Survival post-challenge,EL4/HHD tumor cells; [10],39 days and 40 days and 41 days
same,Survival post-challenge (days),EL4/HHD tumor cells; [10],200+ days
YLEYRQVPV (MAGE-A-248V9) [MAGE-A248V9],CTL avidity,[2]; [11],400 nM
same,CTL avidity,[2]; [8],450 nM
same,CTL avidity,[2]; [9],320 nM
"TERT540: dominant peptide TERT540 (hTERT:540-548), literature vaccine (ILAKFLHWL; UniProt O14746 540-548, looked up, fragment)",objective clinical response,"[3]; 11 patients with renal cancer (Parkhurst, Riley et al. 2004)",none of 11 patients
same,patients who responded to the vaccine,"[3]; TERT540 emulsified in Monatanide (Parkhurst, Riley et al. 2004)",50%
"RLFFYRKSV (TERT-572) [TERT572, native cryptic peptide derived from TERT]",purity or concentration after storage,[4],No decrease in purity or concentration
same,CTL avidity,[5],110 nM and 190 nM and 70 nM
same,Survival post-challenge,EL4/HHD tumor cells; [12],32 days and 35 days and 40 days
same,Survival post-challenge (days),EL4/HHD tumor cells; [12],200+ days
"YLFFYRKSV [TERT572Y, YLFFYRKSV]","hematologic, renal, gastrointestinal or hepatic toxicity",[6]; TERT-expressing normal cells and tissues,"no significant hematologic, renal, gastrointestinal or hepatic toxicity was observed"
same,MTD dose level,[6]; dose levels 2-6 mg,has not been reached
same,Dose-limiting toxicity (DLT),"[6]; dose levels 2-6 mg, entire study",No DLT was observed
same,signs of autoimmunity,[6]; even 24 months after the end of vaccination,none of the patients showed signs of autoimmunity
same,Toxicity Grade I,[6]; individual patients,"no (6×) and Anemia, local skin, fatigue, and anorexia and Thrombo/penia, local skin and Local skin (5×) and thrombocytopenia and Anemia, local skin (3×) and Anemia and Local skin, anemia"
same,Toxicity Grade II,[6]; individual patients,"fatigue, nausea and no (16×) and anorexia, fatigue, and nausea and anorexia, fatigue"
same,Toxicity Grade III/IV,[6]; individual patients,no
same,delayed toxicity,[6]; monthly follow up after completing or discontinuing vaccination,no signs or findings of delayed toxicity were observed
same,grade 11 anorexia,[6]; of 19 patients,2 patients
same,grade 11 fatigue,[6]; of 19 patients,3 patients
same,grade 11 nausea,[6]; of 19 patients,2 patients
same,grade I anemia,[6]; of 19 patients,6 patients
same,grade I anorexia,[6]; of 19 patients,1 patient
same,grade I fatigue,[6]; of 19 patients,1 patient
same,grade I local skin reaction,[6]; of 19 patients,11 patients
same,grade I thrombocytopenia,[6]; of 19 patients,2 patients
same,patients who developed grade 11 toxicity,[6]; of 19 patients,Three
same,patients who developed grade I toxicity,[6]; of 19 patients,Thirteen
YLQVNSLQTV (TERT-988Y1) [TERT988Y],CTL line avidity,[1]; [7],300 nM
same,CTL line avidity,[1]; [8],500 nM
same,CTL line avidity,[1]; [9],600 nM
same,Survival post-challenge,EL4/HHD tumor cells; [10],40 days (3×) and 43 days (2×)
same,Survival post-challenge (days),EL4/HHD tumor cells; [10],200+ days
YLEYRQVPD (MAGE-A-248D9) [MAGE-A248D9],CTL avidity,[2]; [11],200 nM
same,CTL avidity,[2]; [8],40 nM
same,CTL avidity,[2]; [9],0.8 nM
